Results on 29 compounds are retold here after patent publication US9586931B2 (Merck Sharp & Dohme Corp., priority 2012, dated 2017).

“And” between values parts separate entries of the source, which are not always exact repeats. Identical values can stand only once.

In general, IC50 refers to the concentration needed to halve the response being measured.

In the experiment the target is T1, recombinant human GST-Syk (Homo sapiens, UniProt P43405).
T1 construct: purchased Carna Biosciences 08-176
Kind of experiment: Homogeneous Time-Resolved Fluorescence (HTRF) assay for the recombinant human Syk enzyme. The experiment is classed as biochemical. As to conditions: recombinant human GST-Syk 5 pM, ATP 25 μM, 10-dose titration 10 μM to 0.508 nM; read-out: rhSYK Activity IC50. How it is done: Syk inhibition may be determined using the following assay protocol:
Homogeneous Time-Resolved Fluorescence (HTRF) assay for the recombinant human Syk enzyme: A recombinant GST-hSyk fusion protein was used to measure potency of compounds to inhibit human Syk activity. […] Final volume of the reaction was 10 μL. Phosphorylation of the peptide was allowed to proceed for 45 minutes at room temperature. To quench the reaction and detect the phosphorylated product, 2 nM of a Europium-anti-phosphotyrosine antibody (Perkin Elmer #AD0161) and 70 nM SA-APC (Perkin-Elmer #CR130-100) were added together in 15 mM Tris pH 7.5, 40 mM EDTA, 0.01% tween 20. Final volume of the quenching solution was 10 μL. The resulting HTRF signal was measured after 30 minutes on an EnVision (Perkin-Elmer) reader using a time-resolved fluorescence protocol.
A general note: Time-resolved FRET reads energy transfer from a long-lived donor to a nearby acceptor.
`Cc1cc(Nc2cc(C(F)(F)F)ccn2)nc(-c2cn(C3CCC(C(=O)O)C(C)(C)C3)nn2)c1` (single isomer, unassigned) [Example 3.6, (R or S) 2,2-dimethyl-4-[4-(4-methyl-6-{[4-(trifluoromethyl)pyridin-2-yl]amino}pyridin-2-yl)-1H-1,2,3-triazol-1-yl]cyclohexanecarboxylic acid]: the IC50 was 3.5 nM.

Take `Cc1cc(Nc2cc(OC3CCCCC3)ccn2)nc(-c2cn(C(C)c3ccc(C(=O)O)cc3)nn2)c1` (centres unmarked) [Example 2.6, 4-{1-[4-(6-{[4-(cyclohexyloxy)pyridin-2-yl]amino}-4-methylpyridin-2-yl)-1H-1,2,3-triazol-1-yl]ethyl}benzoic acid]: the IC50 is 26.6 nM.

As for `Cc1cc(Nc2cc(C(F)(F)F)ccn2)nc(-c2cn(CCc3cn[nH]c3)nn2)c1` [Example 5.105, 4-methyl-6-{1-[2-(1H-pyrazol-4-yl)ethyl]-1H-1,2,3-triazol-4-yl}-N-[4-(trifluoromethyl)pyridin-2-yl]pyridin-2-amine], the half-maximal inhibitory concentration (IC50) is 2.1 nM.

In the case of `Cc1cc(Nc2nccc(C(F)(F)F)n2)cc(-c2cn(C[C@H](C)CO)nn2)c1` [Example 5.72, (2S)-2-methyl-3-[4-(3-methyl-5-{[4-(trifluoromethyl)pyrimidin-2-yl]amino}phenyl)-1H-1,2,3-triazol-1-yl]propan-1-ol], the IC50 stood at 38.1 nM.

For the compound `Cc1cc(Nc2nccc(C(F)(F)F)n2)cc(-n2cc(C3(O)CCC(C(=O)O)C(C)(C)C3)nn2)c1` (centres unmarked) [Example 15.2], the IC50 stood at 14.5 nM.

For `Cc1cc(Nc2cc(C(F)(F)F)ccn2)nc(-c2cn(C3CCNC(=O)CC3)nn2)c1` (racemic) [Example 11.1, 5-[4-(4-Methyl-6-{[4-(trifluoromethyl)pyridin-2-yl]amino}pyridin-2-yl)-1H-1,2,3-triazol-1-yl]azepan-2-one], the IC50 amounted to 21.2 nM.

As to `Cc1cc(Nc2cc(C(F)(F)F)ccn2)nc(-c2cn(C[C@H](O)CO)nn2)c1` [Example 5.7, (2S)-3-[4-(4-methyl-6-{[4-(trifluoromethyl)pyridin-2-yl]amino}pyridin-2-yl)-1H-1,2,3-triazol-1-yl]propane-1,2-diol], the half-inhibitory concentration (IC50) is 7.3 nM and 3.4 nM.

On to `Cc1cc(Nc2cc(C(F)(F)F)ccn2)nc(-c2cn(CCC(=O)O)nn2)c1` [Example 5.9, 3-[4-(4-methyl-6-{[4-(trifluoromethyl)pyridin-2-yl]amino}pyridin-2-yl)-1H-1,2,3-triazol-1-yl]propanoic acid], for which the half-maximal inhibitory concentration (IC50) is 38.1 nM.

`Cc1cc(Nc2nccc(C(F)(F)F)n2)cc(-c2cn(CCC(=O)O)nn2)c1` [Example 5.60, 3-[4-(3-methyl-5-{[4-(trifluoromethyl)pyrimidin-2-yl]amino}phenyl)-1H-1,2,3-triazol-1-yl]propanoic acid]: the half-inhibitory concentration (IC50) worked out at 41.8 nM.

Consider `CCCC(C(=O)OCC)n1cc(-c2cc(C)cc(Nc3cc(C(F)(F)F)ccn3)n2)nn1` (racemic) [Example 5.27, ethyl 2-[4-(4-methyl-6-{[4-(trifluoromethyl)pyridin-2-yl]amino}pyridin-2-yl)-1H-1,2,3-triazol-1-yl]pentanoate], for which the IC50 was 146 nM.

For `Cc1cc(Nc2cc(C(F)(F)F)ccn2)nc(-c2cn([C@H](C)C(=O)NCC(N)=O)nn2)c1` [Example 1.21, (2R)-N-(2-amino-2-oxoethyl)-2-[4-(4-methyl-6-{[4-(trifluoromethyl)pyridin-2-yl]amino}pyridin-2-yl)-1H-1,2,3-triazol-1-yl]propanamide], the IC50 was 23.1 nM.

Regarding `Cc1cc(Nc2cc(C(F)F)ccn2)nc(-c2cn(C(C)C(C)(O)CO)nn2)c1` (single isomer, unassigned) [Example 30.8, 3-[4-(6-{[4-(difluoromethyl)pyridin-2-yl]amino}-4-methylpyridin-2-yl)-1H-1,2,3-triazol-1-yl]-2-methylbutane-1,2-diol], the IC50 amounted to 1.2 nM.

Regarding `Cc1cc(Nc2cc(C(F)(F)F)ccn2)nc(-c2cn(CC(C)(C)O)nn2)c1` [Example 5.97, 2-methyl-1-[4-(4-methyl-6-{[4-(trifluoromethyl)pyridin-2-yl]amino}pyridin-2-yl)-1H-1,2,3-triazol-1-yl]propan-2-ol], the concentration for half-maximal inhibition (IC50) turned out to be 15 nM.

Consider `Cc1cc(Nc2cc(C(F)(F)F)ccn2)nc(-c2cn(CC(O)C(O)c3ccccc3)nn2)c1` (centres unmarked) [Example 10.1, 3-(4-(4-Methyl-6-((4-(trifluoromethyl)pyridin-2-yl)amino)pyridin-2-yl)-1H-1,2,3-triazol-1-yl)-1-phenylpropane-1,2-diol], for which the IC50 came out at 8.8 nM.

`Cc1cc(Nc2cc(C(F)(F)F)ccn2)nc(-c2cn(-c3ccc(C(N)=O)cc3)nn2)c1` [Example 1.15, 4-[4-(4-methyl-6-{[4-(trifluoromethyl)pyridin-2-yl]amino}pyridin-2-yl)-1H-1,2,3-triazol-1-yl]benzamide]: the 50% inhibitory concentration (IC50) amounted to 15.4 nM.

Regarding `Cc1cc(Nc2cc(C(F)(F)F)ccn2)nc(-c2cn(Cc3ccc(C(=O)O)cc3)nn2)c1` [Example 5.42, 4-{[4-(4-methyl-6-{[4-(trifluoromethyl)pyridin-2-yl]amino}pyridin-2-yl)-1H-1,2,3-triazol-1-yl]methyl}benzoic acid], the IC50 stood at 3.3 nM.

As for `Cc1cc(Nc2nccc(C(F)(F)F)n2)cc(-c2cn(C[C@H](O)CC#N)nn2)c1` [Example 5.98, (3R)-3-hydroxy-4-[4-(3-methyl-5-{[4-(trifluoromethyl)pyrimidin-2-yl]amino}phenyl)-1H-1,2,3-triazol-1-yl]butanenitrile], the half-inhibitory concentration (IC50) was found to be 20 nM.

For the compound `CCOC(=O)C(CC)n1cc(-c2cc(C)cc(Nc3cc(C(F)(F)F)ccn3)n2)nn1` (racemic) [Example 5.28, ethyl 2-[4-(4-methyl-6-{[4-(trifluoromethyl)pyridin-2-yl]amino}pyridin-2-yl)-1H-1,2,3-triazol-1-yl]butanoate], the IC50 was 76.5 nM.

Turning to `Cc1cc(Nc2nccc(C(F)F)n2)cc(-c2cn(CC3CNC(=O)C3)nn2)c1` (single isomer, unassigned) [Example 28.2, 4-((4-(3-((4-(difluoromethyl)pyrimidin-2-yl)amino)-5-methylphenyl)-1H-1,2,3-triazol-1-yl)methyl)pyrrolidin-2-one], the 50% inhibitory concentration (IC50) came to 5.4 nM.

Turning to `Cc1cc(Nc2nccc(C(F)(F)F)n2)cc(-c2cn(C3CCC(C(=O)OC(C)(C)C)CC3)nn2)c1` (centres unmarked) [Example 9.4, tert-butyl 4-[4-(3-methyl-5-{[4-(trifluoromethyl)-pyrimidin-2-yl]amino}-phenyl)-1H-1,2,3-triazol-1-yl]cyclohexane-carboxylate], the concentration for half-maximal inhibition (IC50) turned out to be 7220 nM.

Regarding `Cc1cc(Nc2cc(C(F)(F)F)ccn2)nc(-c2cn(CC(O)C(=O)O)nn2)c1` (racemic) [Example 5.39, 2-hydroxy-3-[4-(4-methyl-6-{[4-(trifluoromethyl)pyridin-2-yl]amino}pyridin-2-yl)-1H-1,2,3-triazol-1-yl]propanoic acid], the IC50 is 44.9 nM.

`Cc1cc(Nc2nccc(C(F)F)n2)cc(-c2cn(C3CCCCC3(C)O)nn2)c1` (single isomer, unassigned) [Example 7.19, 2-[4-(3-{[4-(difluoromethyl)pyrimidin-2-yl]amino}-5-methylphenyl)-1H-1,2,3-triazol-1-yl]-1-methylcyclohexanol]: the IC50 stood at 16.2 nM.

In the case of `Cc1cc(Nc2nccc(C(F)(F)F)n2)cc(-n2cc(C3(O)CCC(C(=O)O)C(C)(C)C3)nn2)c1` (centres unmarked) [Example 15.1, 4-hydroxy-2,2-dimethyl-4-[1-(3-methyl-5-{[4-(trifluoromethyl)pyrimidin-2-yl]amino}phenyl)-1H-1,2,3-triazol-4-yl]cyclohexanecarboxylic acid], the IC50 was 6.5 nM.

For the compound `Cc1cc(Nc2cc(C(F)F)ccn2)nc(-c2cn(C3CCCC(O)C3O)nn2)c1` (centres unmarked) [Example 21.38, 3-(4-(6-((4-(difluoromethyl)pyridin-2-yl)amino)-4-methylpyridin-2-yl)-1H-1,2,3-triazol-1-yl)cyclohexane-1,2-diol], the 50% inhibitory concentration (IC50) was 3.7 nM.

For the compound `Cc1cc(Nc2nccc(C(F)(F)F)n2)cc(-c2cn(CCCO)nn2)c1` [Example 5.77, 3-[4-(3-methyl-5-{[4-(trifluoromethyl)pyrimidin-2-yl]amino}phenyl)-1H-1,2,3-triazol-1-yl]propan-1-ol], the IC50 came to 50.7 nM.

Turning to `Cc1cc(Nc2nccc(C)n2)cc(-c2cn(CC(C)(O)C(C)(C)O)nn2)c1` (centres unmarked) [Example 21.35, 2,3-dimethyl-1-(4-{3-methyl-5-[(4-methylpyrimidin-2-yl)amino]phenyl}-1H-1,2,3-triazol-1-yl)butane-2,3-diol], the IC50 came to 83.9 nM.

As to `Cc1cc(Nc2cc(C(F)(F)F)ccn2)nc(-c2cn([C@@H](C)C(=O)NCC(N)=O)nn2)c1` [Example 1.22, (2S)-N-(2-amino-2-oxoethyl)-2-[4-(4-methyl-6-{[4-(trifluoromethyl)pyridin-2-yl]amino}pyridin-2-yl)-1H-1,2,3-triazol-1-yl]propanamide], the half-inhibitory concentration (IC50) came to 22.8 nM.

On to `Cc1cc(Nc2ncc(F)c(C(F)F)n2)cc(-c2cn(CC3OC(=O)NC3C)nn2)c1` (single isomer, unassigned) [Example 7.37, 5-{[4-(3-{[4-(difluoromethyl)-5-fluoropyrimidin-2-yl]amino}-5-methylphenyl)-1H-1,2,3-triazol-1-yl]methyl}-4-methyl-1,3-oxazolidin-2-one], for which the half-inhibitory concentration (IC50) amounted to 15.9 nM.

Take `CCOC(=O)Cn1cc(-c2cc(C)cc(Nc3cc(C(F)(F)F)ccn3)n2)nn1` [Example 5.100, ethyl [4-(4-methyl-6-{[4-(trifluoromethyl)pyridin-2-yl]amino}pyridin-2-yl)-1H-1,2,3-triazol-1-yl]acetate]: the half-inhibitory concentration (IC50) is 27.7 nM.
